Like-named read-outs stand apart in the source and are kept apart here.
Target: BMAL1 (Homo sapiens, UniProt O00327)
Design: PASB domain (residues 338–449); Protein thermal shift (PTS) fragment screen on recombinant human BMAL1(PASB), shift of melting temperature
Details: binder

Sequence of BMAL1 (O00327 338-449): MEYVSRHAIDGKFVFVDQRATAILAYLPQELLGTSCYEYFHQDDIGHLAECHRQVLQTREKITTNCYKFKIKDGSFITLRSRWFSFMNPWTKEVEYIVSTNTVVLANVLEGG

SMILES | Bmal1(PASB) dTmB (dTmB) | Bmal1(PASB) dTmB
NCc1cscn1 [Prestw-Frag-3747, Compound 29] | -1.05 °C | 
Nc1nc2ccccc2o1 [Prestw-Frag-2256, Compound 309] | -0.33 °C | 
Oc1ccc2cc[nH]c2c1 [Prestw-Frag-1374, Compound 33] | 0.97 °C | 
CCN(CC)CCNc1ccccc1 [Prestw-Frag-1993, Compound 214] | -0.30 °C | 
Nc1ncnc2c1ncn2CCO [Prestw-Frag-3329, Compound 91] | -0.48 °C | 
OCCCN1CCN(c2ccccc2)CC1 [Prestw-Frag-1944, Compound 178] | -0.31 °C | 
OC1(c2ccc(Cl)cc2)CCNCC1 [Prestw-Frag-1365, Compound 373] | -1.00 °C | 
CCN(CC)CCNC(=O)c1ccc(N)c(Cl)c1 [Prestw-Frag-3120, Compound 278] | -0.15 °C | 
OCc1cc2ccccc2[nH]1 [Prestw-Frag-1297, Compound 419] | 0.70 °C | 
c1ccc(C2CNCCO2)cc1 (stereo not drawn) [Prestw-Frag-2958, Compound 322] | -0.55 °C | 
NC1CCC(=O)NC1=O (stereo not drawn) [Prestw-Frag-3716, Compound 102] | -0.05 °C | 
Cc1ccccc1C(=O)Nc1ccccc1 [Prestw-Frag-3202, Compound 39] | -1.32 °C | 
CN1CCC[C@H]1c1cccnc1 [Prestw-Frag-1187, Compound 13] | -0.52 °C | 
Nc1ccccc1S(N)(=O)=O [Prestw-Frag-2473, Compound 242] | 0.04 °C | 
Clc1cccc(N2CCNCC2)c1Cl [Prestw-Frag-2853, Compound 42] | -1.63 °C | 
CCC(C(=O)OCCN(CC)CC)c1ccccc1 (stereo not drawn) [Prestw-Frag-1343, Compound 396] | -1.01 °C | 
c1ccc(-n2ccc3ccccc32)cc1 [Prestw-Frag-3011, Compound 447] | -0.07 °C | 
CCCC(=O)Nc1cccc(C(C)=O)c1 [Prestw-Frag-1717, Compound 428] | -0.30 °C | 
CS(=O)(=O)NC(Cc1ccccc1)C(=O)O (stereo not drawn) [Prestw-Frag-3362, Compound 137] | 0.29 °C | 
NCCCOc1cccc(CN2CCCCC2)c1 [Prestw-Frag-2808, Compound 156] | -1.04 °C | 
c1cncc(CN2CCNCC2)c1 [Prestw-Frag-3722, Compound 288] | -0.77 °C | 
Fc1ccc(C(c2ccc(F)cc2)N2CCNCC2)cc1 [Prestw-Frag-1323, Compound 452] | -2.55 °C | 

SMILES | Bmal1(PASB) dTmB (dTmB) | Bmal1(PASB) dTmB
NS(=O)(=O)c1cc(C(=O)O)ccc1Cl [Prestw-Frag-2051, Compound 160] | 0.10 °C | 
CCN(CC)C(=O)CC#N [Prestw-Frag-3731, Compound 282] | -0.04 °C | 
Oc1cccc2[nH]ccc12 [Prestw-Frag-3696, Compound 12] | -0.70 °C | 
c1ccc(C2COCCN2)cc1 (stereo not drawn) [Prestw-Frag-3705, Compound 182] | -0.30 °C | 
CC(=O)Nc1nncs1 [Prestw-Frag-1008, Compound 401] | -0.09 °C | 
NCC(CC(=O)O)c1ccccc1 (stereo not drawn) [Prestw-Frag-1125, Compound 234] | -0.06 °C | 
Fc1ccc(CN2CCNCC2)cc1 [Prestw-Frag-3673, Compound 274] | -1.00 °C | 
Cc1cccc(C)c1N [Prestw-Frag-2313, Compound 365] | -0.18 °C | 
COc1ccccc1OCCO [Prestw-Frag-1338, Compound 363] | 0.76 °C | 
NC(=O)c1[nH]cnc1N [Prestw-Frag-2268, Compound 14] | -0.68 °C | 
Cc1nccn1CCO [Prestw-Frag-1517, Compound 258] | -0.20 °C | 
CCc1cccc2c(CCO)c[nH]c12 [Prestw-Frag-1299, Compound 129] | -0.11 °C | 
O=c1[nH]snc1N1CCOCC1 [Prestw-Frag-2562, Compound 37] | -0.14 °C | 
Cc1cc(N)no1 [Prestw-Frag-1647, Compound 292] | -0.16 °C | 
c1ccc(CNc2ccccn2)cc1 [Prestw-Frag-1475, Compound 204] | -1.06 °C | 
CC(=O)c1ccc(N2CCNCC2)c(F)c1 [Prestw-Frag-1094, Compound 141] | -0.42 °C | 
O=C(O)COc1ccccc1 [Prestw-Frag-2577, Compound 147] | 0.25 °C | 
O=C(CCc1ccccc1)c1ccccc1O [Prestw-Frag-2152, Compound 434] | -0.33 °C | 
Fc1cccnc1N1CCCC1 [Prestw-Frag-3150, Compound 24] | -0.14 °C | 
CNCCc1c[nH]c2ccccc12 [Prestw-Frag-1356, Compound 318] | -0.40 °C | 
NCCc1ccc(S(N)(=O)=O)cc1 [Prestw-Frag-1076, Compound 338] |  | -0.53
Nc1ccn([C@H]2C[C@H](O)[C@@H](CO)O2)c(=O)n1 [Prestw-Frag-3264, Compound 107] | -0.01 °C | 

SMILES | Bmal1(PASB) dTmB (dTmB) | Bmal1(PASB) dTmB
CC(C)(C)OC(=O)/C=C/c1ccccc1 [Prestw-Frag-2947, Compound 382] | -0.17 °C | 
N#CC1(c2ccc(F)cc2)CCCCC1 [Prestw-Frag-2647, Compound 433] | -0.64 °C | 
COc1ccc(OC)c(C(C)O)c1 (stereo not drawn) [Prestw-Frag-2208, Compound 283] | -0.43 °C | 
O=C1COc2cc(O)ccc21 [Prestw-Frag-3703, Compound 77] | 0.62 °C | 
Cc1ccccc1NC(=O)C(C)N (stereo not drawn) [Prestw-Frag-1856, Compound 389] | 0.12 °C | 
COC(=O)c1scc(C)c1N [Prestw-Frag-1111, Compound 362] | -0.95 °C | 
Cc1cc(C)[nH]c(=O)n1 [Prestw-Frag-3247, Compound 190] | 0.01 °C | 
CN(C)CCNCc1ccccc1 [Prestw-Frag-1476, Compound 397] | -0.27 °C | 
COc1ccc(Cl)cc1C(N)=O [Prestw-Frag-1775, Compound 316] | -0.78 °C | 
O=c1ccc2ccccc2o1 [Prestw-Frag-1000, Compound 307] | -0.26 °C | 
CC(=O)C1CCNCC1 [Prestw-Frag-3756, Compound 333] | -0.19 °C | 
COc1ccc(Cc2ccc(OC)cc2)cc1 [Prestw-Frag-1033, Compound 354] | -0.11 °C | 
O=c1[nH]c2ccccc2n1C1CCNCC1 [Prestw-Frag-1587, Compound 407] | -0.86 °C | 
O=C(O)CC[C@H](NC(=O)c1ccccc1)C(=O)O [Prestw-Frag-1499, Compound 195] | 0.09 °C | 
c1ncc(C2CCNCC2)[nH]1 [Prestw-Frag-3753, Compound 303] | -0.23 °C | 
COC(=O)C(c1ccccc1)c1ccccc1 [Prestw-Frag-1013, Compound 353] | -1.32 °C | 
Cc1cc(C(C)(C)CC(C)(C)C)ccc1O [Prestw-Frag-1016, Compound 351] | 0.69 °C | 
CC(O)(C(=O)O)c1ccccc1 (stereo not drawn) [Prestw-Frag-3717, Compound 103] | -0.01 °C | 
Oc1cccc(CN2CCCCC2)c1 [Prestw-Frag-2809, Compound 115] | -0.43 °C | 
c1ccc2c(c1)CNc1ccccc1C2 [Prestw-Frag-1722, Compound 6] | -1.75 °C | 
O=C(O)CNC(=O)c1ccccc1 [Prestw-Frag-2576, Compound 196] | 0.18 °C | 
Nc1nc2ccccc2n1Cc1ccc(F)cc1 [Prestw-Frag-1050, Compound 460] | -1.64 °C | 

SMILES | Bmal1(PASB) dTmB (dTmB) | Bmal1(PASB) dTmB
CN1CCN(C(c2ccccc2)c2ccccc2)CC1 [Prestw-Frag-1325, Compound 405] | -0.51 °C | 
CC(O)(c1ccccc1)c1ccccc1 [Prestw-Frag-2235, Compound 444] | -1.59 °C | 
CN1CCN(c2cc(N)ncn2)CC1 [Prestw-Frag-3262, Compound 191] | -0.17 °C | 
Cc1ccc(N)c(C#N)c1 [Prestw-Frag-3060, Compound 394] | -0.18 °C | 
COc1cc(N)ncn1 [Prestw-Frag-1154, Compound 185] | -0.03 °C | 
Nc1ncc([N+](=O)[O-])s1 [Prestw-Frag-3324, Compound 478] | -7.14 °C | 
O=C(O)c1ccccc1NCc1ccco1 [Prestw-Frag-2052, Compound 70] | -0.26 °C | 
c1cnccn1 [Prestw-Frag-2501, Compound 209] | 0.00 °C | 
c1cc(N2CCNCC2)ncn1 [Prestw-Frag-3729, Compound 289] | -0.01 °C | 
O=C(O)CC(c1ccccc1)c1ccccc1 [Prestw-Frag-3250, Compound 130] | -0.49 °C | 
OCCN1CCN(c2ccccc2)CC1 [Prestw-Frag-1945, Compound 144] | -0.42 °C | 
COc1cc2c(cc1O)CCN[C@H]2C [Prestw-Frag-1063, Compound 388] | -0.57 °C | 
NNC(=O)c1ccncc1 [Prestw-Frag-1419, Compound 226] | -0.26 °C | 
O=C1CCCc2[nH]ccc21 [Prestw-Frag-2675, Compound 219] | 0.11 °C | 
O=c1cc(O)c2ccccc2o1 [Prestw-Frag-1131, Compound 301] | 0.28 °C | 
O=C(OC1CCCCC1)c1ccccc1O [Prestw-Frag-1382, Compound 265] | 0.09 °C | 
c1ccc2c3c([nH]c2c1)CCCC3 [Prestw-Frag-2780, Compound 46] | -0.19 °C | 
O=C1CCc2ccc(O)cc2N1 [Prestw-Frag-2854, Compound 80] | -0.98 °C | 
O=C(Cc1ccccc1)c1ccccc1 [Prestw-Frag-2219, Compound 440] | -0.71 °C | 
Cc1c(N)cccc1C(F)(F)F [Prestw-Frag-1189, Compound 334] | -0.15 °C | 
Cc1cccc(C)c1NC(=O)CN1CCNCC1 [Prestw-Frag-1996, Compound 391] | -0.66 °C | 
